From the NIST ThermoML archive (doi:10.1021/je800110r)
Where “and” joins values, the source holds several entries; their conditions need not be identical. Equal values may be shown once.

Details: 283.14 K, Liquid, Vibrating tube method

CCCCCCCCCC [decane]
Details | mass density
322 kPa | 737.5 kg/m3
338 kPa | 737.7 kg/m3
385 kPa | 737.6 kg/m3
479 kPa | 737.8 kg/m3
514 kPa | 737.8 kg/m3
551 kPa | 737.8 kg/m3
574 kPa | 737.8 kg/m3
589 kPa | 737.8 kg/m3
615 kPa | 737.9 kg/m3
633 kPa | 737.9 kg/m3
651 kPa | 737.9 kg/m3
665 kPa | 737.9 kg/m3
683 kPa | 737.8 kg/m3
700 kPa | 737.8 kg/m3
721 kPa | 737.8 kg/m3
740 kPa | 737.9 kg/m3
763 kPa | 738 kg/m3
783 kPa | 737.9 kg/m3
808 kPa | 738 kg/m3
833 kPa | 738 kg/m3
857 kPa | 738 kg/m3
877 kPa | 738 kg/m3
899 kPa | 738 kg/m3
931 kPa | 738.1 kg/m3
966 kPa | 738.2 kg/m3
995 kPa | 738.1 kg/m3
1025 kPa | 738.1 kg/m3
1066 kPa | 738.2 kg/m3
1103 kPa | 738.2 kg/m3
1133 kPa | 738.1 kg/m3
1173 kPa | 738.3 kg/m3
1217 kPa | 738.3 kg/m3
1247 kPa | 738.2 kg/m3
1299 kPa | 738.3 kg/m3
1359 kPa | 738.3 kg/m3
1404 kPa | 738.5 kg/m3
1536 kPa | 738.5 kg/m3
2661 kPa | 739.4 kg/m3
2677 kPa | 739.3 kg/m3
2694 kPa | 739.3 kg/m3
2848 kPa | 739.5 kg/m3
2888 kPa | 739.4 kg/m3
2910 kPa | 739.5 kg/m3
2926 kPa | 739.5 kg/m3
2942 kPa | 739.5 kg/m3
2959 kPa | 739.6 kg/m3
2987 kPa | 739.6 kg/m3
3024 kPa | 739.7 kg/m3
3042 kPa | 739.6 kg/m3
3053 kPa | 739.6 kg/m3
3064 kPa | 739.7 kg/m3
3084 kPa | 739.6 kg/m3
3192 kPa | 739.6 kg/m3
3239 kPa | 739.7 kg/m3
3249 kPa | 739.8 kg/m3
3261 kPa | 739.8 kg/m3
3321 kPa | 739.8 kg/m3
3332 kPa | 739.8 kg/m3
3814 kPa | 740.2 kg/m3
3824 kPa | 740.1 kg/m3
3837 kPa | 740.2 kg/m3
3847 kPa | 740.3 kg/m3
3862 kPa | 740.2 kg/m3
3876 kPa | 740.1 kg/m3
3887 kPa | 740.3 kg/m3
4382 kPa | 740.6 kg/m3
4686 kPa | 740.8 kg/m3
4709 kPa | 740.9 kg/m3
4730 kPa | 740.8 kg/m3
4749 kPa | 740.9 kg/m3
4854 kPa | 741 kg/m3
4879 kPa | 741 kg/m3
4901 kPa | 741 kg/m3
4924 kPa | 740.9 kg/m3
4947 kPa | 741 kg/m3
4968 kPa | 741.1 kg/m3
4992 kPa | 741.1 kg/m3
5006 kPa | 741.1 kg/m3
5028 kPa | 741 kg/m3
5042 kPa | 741 kg/m3
5058 kPa | 741.1 kg/m3
5077 kPa | 741.1 kg/m3
5094 kPa | 741.2 kg/m3
5117 kPa | 741.1 kg/m3
5136 kPa | 741 kg/m3
5156 kPa | 741.1 kg/m3
5176 kPa | 741.3 kg/m3
5205 kPa | 741.3 kg/m3
5223 kPa | 741.2 kg/m3
5244 kPa | 741.2 kg/m3
5265 kPa | 741.2 kg/m3
5316 kPa | 741.3 kg/m3
5598 kPa | 741.5 kg/m3
5751 kPa | 741.6 kg/m3
5767 kPa | 741.6 kg/m3
5776 kPa | 741.6 kg/m3
5781 kPa | 741.6 kg/m3
5783 kPa | 741.6 kg/m3
5784 kPa | 741.5 kg/m3 and 741.7 kg/m3
5793 kPa | 741.7 kg/m3
5798 kPa | 741.6 kg/m3
5802 kPa | 741.6 kg/m3
5814 kPa | 741.7 kg/m3
5816 kPa | 741.6 kg/m3
5823 kPa | 741.7 kg/m3
5833 kPa | 741.6 kg/m3
5852 kPa | 741.7 kg/m3
5869 kPa | 741.7 kg/m3
5881 kPa | 741.7 kg/m3
5888 kPa | 741.6 kg/m3
5891 kPa | 741.7 kg/m3
5895 kPa | 741.8 kg/m3
5898 kPa | 741.7 kg/m3
5902 kPa | 741.8 kg/m3
5907 kPa | 741.7 kg/m3
5910 kPa | 741.7 kg/m3
5914 kPa | 741.7 kg/m3
5929 kPa | 741.7 kg/m3
6176 kPa | 741.9 kg/m3
6202 kPa | 741.9 kg/m3
6218 kPa | 741.8 kg/m3
6237 kPa | 741.9 kg/m3
6251 kPa | 741.8 kg/m3
6269 kPa | 741.9 kg/m3
6284 kPa | 742 kg/m3
6304 kPa | 741.9 kg/m3
6319 kPa | 742 kg/m3
6335 kPa | 742 kg/m3
6350 kPa | 741.9 kg/m3
6373 kPa | 742.1 kg/m3
6391 kPa | 742.1 kg/m3
6409 kPa | 742 kg/m3
6431 kPa | 742 kg/m3
6452 kPa | 742 kg/m3
6465 kPa | 742.1 kg/m3
6481 kPa | 742 kg/m3
6497 kPa | 742.2 kg/m3
6519 kPa | 742.2 kg/m3
6543 kPa | 742.1 kg/m3
6560 kPa | 742.2 kg/m3
6588 kPa | 742.2 kg/m3
6610 kPa | 742.2 kg/m3
7156 kPa | 742.7 kg/m3
7171 kPa | 742.6 kg/m3
7221 kPa | 742.7 kg/m3
7240 kPa | 742.6 kg/m3
7671 kPa | 742.8 kg/m3
7684 kPa | 742.9 kg/m3
7747 kPa | 743 kg/m3
7758 kPa | 743 kg/m3
7770 kPa | 743 kg/m3
8186 kPa | 743.2 kg/m3
8201 kPa | 743.4 kg/m3
8217 kPa | 743.3 kg/m3
8232 kPa | 743.3 kg/m3
8252 kPa | 743.3 kg/m3
8265 kPa | 743.3 kg/m3
8279 kPa | 743.3 kg/m3
8296 kPa | 743.4 kg/m3
8848 kPa | 743.8 kg/m3
8878 kPa | 743.7 kg/m3
8907 kPa | 743.7 kg/m3
8922 kPa | 743.8 kg/m3
8936 kPa | 743.9 kg/m3
8949 kPa | 743.7 kg/m3
8964 kPa | 743.9 kg/m3
8980 kPa | 743.8 kg/m3
8992 kPa | 743.9 kg/m3
9004 kPa | 743.8 kg/m3
9019 kPa | 743.8 kg/m3
9029 kPa | 743.9 kg/m3
9038 kPa | 743.8 kg/m3
9050 kPa | 743.9 kg/m3
9059 kPa | 743.9 kg/m3
9071 kPa | 743.8 kg/m3
9080 kPa | 743.9 kg/m3
9717 kPa | 744.3 kg/m3
10364 kPa | 744.7 kg/m3
10421 kPa | 744.9 kg/m3
10435 kPa | 744.9 kg/m3
10472 kPa | 744.9 kg/m3
10482 kPa | 744.8 kg/m3
10525 kPa | 744.9 kg/m3
10552 kPa | 744.9 kg/m3
10563 kPa | 744.8 kg/m3
10574 kPa | 745 kg/m3
10588 kPa | 744.9 kg/m3
10597 kPa | 744.9 kg/m3
10608 kPa | 745 kg/m3
10620 kPa | 745 kg/m3
10631 kPa | 745 kg/m3
10646 kPa | 745 kg/m3
10659 kPa | 745 kg/m3
10673 kPa | 745 kg/m3
10999 kPa | 745.3 kg/m3
11564 kPa | 745.6 kg/m3
11578 kPa | 745.6 kg/m3
11593 kPa | 745.6 kg/m3
11608 kPa | 745.6 kg/m3
11694 kPa | 745.7 kg/m3
11712 kPa | 745.6 kg/m3
11728 kPa | 745.8 kg/m3
11741 kPa | 745.7 kg/m3
11759 kPa | 745.7 kg/m3
13134 kPa | 746.6 kg/m3
13157 kPa | 746.7 kg/m3
13176 kPa | 746.7 kg/m3
13196 kPa | 746.7 kg/m3
13216 kPa | 746.6 kg/m3
13236 kPa | 746.7 kg/m3
13256 kPa | 746.6 kg/m3
13276 kPa | 746.7 kg/m3
13296 kPa | 746.7 kg/m3
13358 kPa | 746.8 kg/m3
13379 kPa | 746.8 kg/m3
13400 kPa | 746.9 kg/m3
13421 kPa | 746.8 kg/m3
13438 kPa | 746.8 kg/m3
13465 kPa | 746.8 kg/m3
13489 kPa | 746.9 kg/m3
13507 kPa | 746.8 kg/m3
13528 kPa | 746.8 kg/m3
13546 kPa | 746.8 kg/m3
13574 kPa | 746.9 kg/m3
13613 kPa | 747 kg/m3
14239 kPa | 747.3 kg/m3
14264 kPa | 747.4 kg/m3
14287 kPa | 747.4 kg/m3
14316 kPa | 747.4 kg/m3
14335 kPa | 747.4 kg/m3
14461 kPa | 747.5 kg/m3
15158 kPa | 748 kg/m3
15181 kPa | 747.9 kg/m3
15201 kPa | 748.1 kg/m3
15221 kPa | 748 kg/m3
15259 kPa | 748.1 kg/m3
15288 kPa | 748 kg/m3
15328 kPa | 748 kg/m3
16053 kPa | 748.5 kg/m3
17575 kPa | 749.4 kg/m3
17600 kPa | 749.6 kg/m3
17681 kPa | 749.6 kg/m3
18272 kPa | 750 kg/m3
18327 kPa | 750.1 kg/m3
18353 kPa | 749.9 kg/m3
18410 kPa | 750.1 kg/m3
18436 kPa | 750.1 kg/m3
18466 kPa | 750.1 kg/m3
18497 kPa | 750.2 kg/m3
18520 kPa | 750.2 kg/m3
18543 kPa | 750.1 kg/m3
18605 kPa | 750.2 kg/m3
18628 kPa | 750.2 kg/m3
19272 kPa | 750.6 kg/m3
19319 kPa | 750.6 kg/m3
19342 kPa | 750.7 kg/m3
19377 kPa | 750.7 kg/m3
19413 kPa | 750.7 kg/m3
20535 kPa | 751.4 kg/m3
20578 kPa | 751.3 kg/m3
20601 kPa | 751.5 kg/m3
21429 kPa | 752 kg/m3
21453 kPa | 752 kg/m3
21475 kPa | 751.9 kg/m3
21504 kPa | 752 kg/m3
21533 kPa | 752 kg/m3
21563 kPa | 752.1 kg/m3
21589 kPa | 752 kg/m3
21622 kPa | 752.2 kg/m3
21647 kPa | 752.1 kg/m3
21669 kPa | 752.1 kg/m3
21696 kPa | 752 kg/m3
21719 kPa | 752.2 kg/m3
